This is an account of results in US10106853B2, “CUL4B as predictive biomarker for cancer treatment” (CORNELL UNIVERSITY, priority 2012, dated 2018).

For one data set, the target named is T1, Top1 (Homo sapiens, UniProt P11387).
T1 construct: CPT-induced TOP1 degradation in breast cancer cell lines; host or cells: human breast cancer cell lines BT474, BT20, MCF-7, MDA-MB-231, T47D, Sk-Br-3 (MCF-10A as control)
T1 sequence (P11387 1-765): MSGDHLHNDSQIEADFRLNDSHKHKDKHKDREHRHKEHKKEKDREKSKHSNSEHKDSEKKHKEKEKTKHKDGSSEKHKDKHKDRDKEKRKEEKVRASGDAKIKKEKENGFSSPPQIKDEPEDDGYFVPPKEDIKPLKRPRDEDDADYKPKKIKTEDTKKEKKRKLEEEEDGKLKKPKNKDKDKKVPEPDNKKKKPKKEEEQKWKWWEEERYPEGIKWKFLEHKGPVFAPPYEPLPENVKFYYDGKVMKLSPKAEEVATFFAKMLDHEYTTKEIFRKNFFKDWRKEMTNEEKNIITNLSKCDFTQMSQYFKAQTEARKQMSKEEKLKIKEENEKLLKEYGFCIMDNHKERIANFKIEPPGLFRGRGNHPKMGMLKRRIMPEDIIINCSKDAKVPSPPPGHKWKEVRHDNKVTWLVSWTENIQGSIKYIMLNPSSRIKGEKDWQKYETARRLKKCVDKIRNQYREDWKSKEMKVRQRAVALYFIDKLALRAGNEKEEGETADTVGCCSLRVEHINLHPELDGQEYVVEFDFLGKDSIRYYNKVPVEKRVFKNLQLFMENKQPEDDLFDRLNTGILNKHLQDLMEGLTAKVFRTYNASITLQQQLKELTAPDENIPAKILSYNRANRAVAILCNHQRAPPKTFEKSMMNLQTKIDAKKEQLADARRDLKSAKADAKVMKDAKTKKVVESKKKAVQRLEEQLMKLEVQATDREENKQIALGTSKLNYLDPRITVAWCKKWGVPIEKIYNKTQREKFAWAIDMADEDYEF
The experiment in a line: CPT-induced TOP1 down regulation assay (immunoblotting). The class given is cell-based. To be noted: BT474 cells, lentiviral shRNA; CPT 50 μM, 1 to 1.5 hr. On the procedure:
FIG. 1. CPT-induced TOP1 degradation in breast cancer cell lines. A) Expression of endogenous CUL4A and 4B in breast cancer cell lines. Total cell lysates were prepared from the indicated breast cancer cell lines and subjected to SDS PAGE and immunoblotting with antibodies against CUL4A, 4B and α-tubulin. The non-cancerous MCF-10A cell line was used as a control for comparison. B) CPT-induced TOP1 degradation in breast cancer cell lines. Cells were treated with 12.5 μM CPT or 1% DMSO for 4 hours, replenished with CPT-free fresh medium and incubated at 37° C. for 30 minutes to reverse the formation of TOP1 cleavable complex. Cells were then lysed and immunoblotted with the TOP1 and α-tubulin antibodies.
FIG. 2. CUL4B interacted with Top1 and induced Top1 degradation in the presence of CPT. A) Knockdown of CUL4B impaired CPT-induced Top1 degradation. BT474 cells were infected with lentiviral shCUL4B, shCUL4A or control non-targeting shRNA, and selected for stable CUL4B^k/d or CUL4A^k/d cells upon treatment with puromycin. Following treatment with CPT (50 μM) for 1 hour, cells were replenished with CPT-free fresh medium and incubated at 37° C. for 30 minutes. Top1 degradation was assessed by immunoblotting with an anti-Top1 antibody. Levels of α-tubulin were measured as a loading control. B) Association of CUL4B with Top1 following CPT treatment. BT474 cells were treated with proteosome inhibitor MG132 (15 μM) for 3 hours, and were subjected to crosslinking with 0.2 mM Dithiobis[succinimidyl propionate](DSP) for the last 30 min at room temperature. Cell lysates were prepared, and immunoprecipitated with the anti-Top1 or anti-CUL4B antibodies, and then immunoblotted using antibodies against CUL4B or Top1, respectively. IgG immunoprecipitates served as the negative control. C) Knockdown of CUL4B using a second shCUL4B-2 impaired CPT-induced Top1 degradation. BT474 cells were infected with lentiviral shCUL4B-2, shCUL4A-2 or control non-targeting shRNA and selected for stable CUL4B^k/d or CUL4A^k/d cells upon treatment with puromycin. Following treatment with CPT (50 μM) for 1.5 hr, cells were replenished with CPT-free fresh medium and incubated at 37° C. for 30 min. Top1 degradation was assessed by immunoblotting with the anti-Top1 antibody. Levels of α-tubulin were measured as a loading control. D) CUL4B inactivation sensitized BT474 cells to cytotoxic killing by camptothecin. BT474, BT474-CUL4A^k/d or BT474-CUL4B^k/d cells were synchronized with 1 μM nocodazole for 13 hours released in fresh medium, treated with the indicated concentrations of CPT for three days, and subjected to the XTT assay to measure the cytotoxic responses to CPT. […] The bars indicate the S.E. of six independent experiments. Statistical significance in cellular response to CPT between control BT474 cells and CUL4A^k/d or CUL4B^k/d cells were assessed by a two-tailed unpaired student t-test (***: p<0.001). The same results were obtained with a second lentiviral shRNA for CUL4A and CUL4B, as well as in T47D breast cancer cells. E, F) Knockdown of CUL4B increased the sensitivity of T47D cells to camptothecin. […] Statistical significance in cellular response to camptothecin between control cells and CUL4A^k/d or CUL4B^k/d BT474 cells are assessed by student's t-test.
CPT-induced Top1 degradation was monitored by immunoblotting of the alkaline lysates. […]

For the next data set, the system named is BT474 xenograft tumors. It counts as in vivo, athymic Nu/J nude mice. To be noted: for Xenograft tumor growth under topotecan treatment: topotecan i.p. 5 mg/g every fourth day. On the procedure: (§1) FIG. 5. CUL4B inactivation sensitized BT474 xenograft tumors to topotecan. Stable TGL-BT474 cells (BT474 cells stably expressing GFP-luciferase reporter) were established by retroviral transduction and FACS sorting. The resulting TGL-BT474 cells were infected with recombinant lentiviruses expressing non-targeting shCtrl, shCUL4A or shCUL4B, followed by selection of infected cells with 4 μg/ml puromycine for one week. A) Knockdown of endogenous CUL4A and 4B were verified by immunoblotting. B, C) 1×10^7 of control, CUL4A^k/d, or CUL4B^k/d TGL-BT474 cells were injected subcutaneously in the right flank of each athymic Nu/J nude mice, treated (i.p.) with toptoecan at a dose of 5 mg/g on every 4th day, and tumor burden was measure by bioluminescent imaging. Statistical significance in tumor burden between control and CUL4A^k/d or CUL4B^k/d xenograph are assessed by a two-tailed unpaired student t-test (***: p<0.001). D) Growth rate of control, CUL4A^k/d and CUL4B^k/d BT474 cells in vitro. The same number of control, CUL4A^k/d and CUL4B^k/d BT474 cells were seeded to 96-well plates and cell proliferation was measured using the XTT Cell Proliferation Assay Kit. The data represent the mean value of fold change of cells. Bars indicate the S.E. of six independent experiments. Statistical significance in cellular rate between control cells and CUL4A^k/d or CUL4B^k/d cells are assessed by student's t-test. E-F) Growth rate of control, CUL4A^k/d and CUL4B^k/d TGL-BT474 xenograft in vivo. 1×10^7 of control, CUL4A^k/d or CUL4B^k/d TGL-BT474 cells were injected subcutaneously in the right flank of each mouse of athymic Nu/J nude mice, and tumor burden was measured by bioluminescent imaging (E). On the 22nd day, tumors were collected, and the weight of exercised tumors was measured after mice were sacrificed (F).
The effect of CUL4B knockdown on an organism's response to CPT treatment was tested in vivo by examining the sensitivity of BT474-CUL4B^k/d, BT474-CUL4A^k/d and control BT474 xenograft tumors to topotecan treatment. Topotecan, (S)-10-[(dimethylamino)methyl]-4-ethyl-4,9-dihydroxy-1H-pyrano[3′,4′:6,7]indolizino[1,2-b]quinoline-3,14(4H,12H)-dione monohydrochloride, is an FDA-approved Top1-directed chemotherapy for the treatment of ovarian, cervical and small cell lung cancer, under the trade name Hycamtin™. Nude mice bearing BT474 xenografts on dorsal skin were treated with topotecan every four (4) days for a period of 44 days. Prior to topotecan administration, the size of the xenograft tumors were identical (FIG. 5). Topotecan was then administered via intraperitoneal injection, and tumor mass was monitors by bioluminescent imaging in four day intervals. […] To rule out the possibility that the growth rate of xenografts were altered during the CUL4B inactivation process (treatment with shRNA) the tumor mass of the three xenograft groups were measured in the absence of topotecan treatment and the weight of the exercised xenograft tumors were analyzed.
Six week old Female athymic Nu/J nude mice were purchased from Jackson Labs. Mice were housed in laminar air-flow cabinets under specific pathogen-free conditions. Nude mice were inoculated with 0.36 mg 60-day-release 17-b-estradiol pellets (Innovative Research) 24 to 48 hours before implantation of BT-474 cells. 1×10^7 BT-474 cells in 50 ul DMEM medium and 300 ul diluted BD Matrigel™ Basement Membrane Matrix (BD Bioscience, Matrix: PBS is 2:1) were injected subcutaneously in the right flank of each mouse. Tumors were detected once every four days by an IVIS Imaging System (Caliper Life Sciences). When tumors were available to be detected, mice were initially treated with topotecan. Topotecan was administered intraperitoneally on every fourth day from the initiation of therapy at doses of 5 mg/g.
The IVIS Imaging System (Caliper life sciences) was used for bioluminescent image acquisition and analysis. […]

A further data set has as its system BT474 cells. The data set can be described thus: XTT Cell Proliferation Assay, growth rate of BT474 cells in vitro. The class given is cell-based, Human. To be noted: knockdown cells vs control, no drug. On the procedure: as §1, with “B, C) 1×10^7 of control, CUL4A^k/d, or CUL4B^k/d TGL-BT474 cells were injected subcutaneously in the right flank of each athymic Nu/J nude mice, treated (i.p.) with toptoecan at a dose of 5 mg/g on every 4th day, and tumor burden was measure by bioluminescent imaging.” left out, “D) Growth rate of control, CUL4A^k/d and CUL4B^k/d BT474 cells in vitro.” left out, “The data represent the mean value of fold change of cells. Bars indicate the S.E. of six independent experiments.” left out, “E-F) Growth rate of control, CUL4A^k/d and CUL4B^k/d TGL-BT474 xenograft in vivo.” left out

Where two headings read alike, the source gives them in different places.

Turning to “shCUL4B-2: second lentiviral shRNA CUL4B sequence purchased from Sigma Aldrich (CCGGGCAATTCTTCAGAAAGGTTTACTCGAGTAAACCTTTCTGAAGAATTGCTTTTT)”, in the data set with Top1, the “Effect of shRNA knockdown on CPT-induced Top1 degradation” value is “impaired”.
Regarding `CC[C@@]1(O)C(=O)OCc2c1cc1n(c2=O)Cc2cc3c(CN(C)C)c(O)ccc3nc2-1.Cl` [topotecan, (S)-10-[(dimethylamino)methyl]-4-ethyl-4,9-dihydroxy-1H-pyrano[3′,4′:6,7]indolizino[1,2-b]quinoline-3,14(4H,12H)-dione monohydrochloride], the “Xenograft tumor growth under topotecan treatment” value was “continue to grow” in the data set with BT474 xenograft tumors (BT474-CUL4A k/d xenografts, 44 days); “largely attenuated” in the data set on BT474 xenograft tumors (BT474-CUL4B k/d xenografts vs control and CUL4A k/d groups (p<0.001)); “continue to grow” in the data set with BT474 xenograft tumors (control BT474 xenografts, 44 days). Moreover, the “Size of control and shCUL4A xenografts relative to shCUL4B xenografts” value in the data set with BT474 xenograft tumors (final day of topotecan treatment) was found to be 5 fold. Moreover, the “Detection of xenografts by bioluminescent imaging” value with BT474 xenograft tumors (several shCUL4B xenografts, final day of topotecan treatment) is “not detectable”.
As to “shCUL4A: lentiviral shRNA CUL4A sequence purchased from Sigma Aldrich (CCGGGCAGAACTGATCGCAAAGCATCTCGAGATGCTTTGCGATCAGTTCTGCTTTTT)”, in the data set with BT474 cells, the “Growth rate of cultured BT474 cells in vitro” value is recorded as “reduced the growth rate slightly”. In the data set on BT474 xenograft tumors (without topotecan administration, tumor burden and excised tumor weight), the “Growth rate of xenografts vs control” value was “no significant difference”.
